Assay results from patent US20200000772A1, “CENICRIVIROC COMBINATION THERAPY FOR THE TREATMENT OF FIBROSIS” (Tobira Therapeutics, Inc., priority 2014, published 2020).

Legend:
CCR5 = CCR5 (Homo sapiens, UniProt P51681); assay: CCR5 antagonism in in vitro, ex vivo and clinical studies; conditions: ex vivo, Studies 652-2-201 and 652-2-202
[1] = tested on: STAM™ mouse model of Non-alcoholic Steatohepatitis; assay: STAM mouse model of NASH, Part 2: anti-HCC effects at week 18; conditions: for Body weight / Liver-to-body weight ratio: mean ± SD; for mice that died (survival analysis): 6 to 18 weeks
Method: Group 1-Vehicle: Eighteen NASH mice were orally administered vehicle at a volume of 10 mL/kg twice daily (9:00 and 19:00) from 6 weeks of age.

[2] = tested on: HIV-1 infected adult subjects; assay: Study 202 biomarkers of inflammation; type: in vivo, human
Method: As an exploratory analysis, levels of inflammation biomarkers MCP-1, sCD14, high sensitivity C-reactive protein [hs-CRP], interleukin-6 [IL-6], D-dimer, and fibrinogen) were measured. Baseline values and changes from baseline at Week 24 and Week 48 of MCP-1, sCD14, hs-CRP, IL-6, D-dimer, and fibrinogen are summarized in Table 22.
The sCD14 samples were originally analyzed in 2 separate batches: Batch 1 included samples leading up to the Week 24 primary analysis and Batch 2 included Week 32 and Week 48 (end of study) samples. A repeat analysis of archived samples all analyzed in one batch was conducted for consistency in analysis across time points. To control for the effects of covariates, a linear mixed-model repeated-measures analysis was conducted on the changes from baseline in sCD14 (analysis dated September 2013).

[3] = CVC plasma exposures, healthy volunteers vs HIV-infected subjects; type: in vivo, human; conditions: same dosing conditions; Studies 652-1-111, 652-1-110, 652-2-202
CCR2 = CCR2 (Homo sapiens, UniProt P41597); assay: CCR2 antagonism in in vitro, ex vivo and clinical studies; conditions: ex vivo, Studies 652-2-201 and 652-2-202
Chain of CCR2 (P41597 whole entry): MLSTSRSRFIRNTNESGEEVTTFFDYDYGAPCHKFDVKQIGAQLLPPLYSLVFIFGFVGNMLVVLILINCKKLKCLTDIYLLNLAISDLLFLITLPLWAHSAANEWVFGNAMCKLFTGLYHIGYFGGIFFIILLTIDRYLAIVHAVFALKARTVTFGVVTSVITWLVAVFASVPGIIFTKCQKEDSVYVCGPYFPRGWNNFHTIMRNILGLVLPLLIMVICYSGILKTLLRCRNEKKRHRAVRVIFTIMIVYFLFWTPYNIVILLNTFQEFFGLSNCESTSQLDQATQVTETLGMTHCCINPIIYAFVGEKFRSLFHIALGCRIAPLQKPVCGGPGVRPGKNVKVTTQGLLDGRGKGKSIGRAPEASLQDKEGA
From the text: Clinical evidence of CCR2 and CCR5 antagonism was established by measuring changes from baseline in plasma MCP-1 (a ligand of CCR2) concentrations and changes in plasma HIV-RNA (CCR5 co-receptor required for HIV entry), respectively, in these 2 Phase 2 Studies.

[4] = Phase 1 CVC and pioglitazone co-administration PK and safety study; type: in vivo, healthy subjects; conditions: CVC 150 mg QD and PGZ 45 mg QD
Method: Plasma samples were collected prior to each dose and over 24 hours at the end of each treatment period. Cmax, Cmin, tmax, and AUC0-tau were determined using non-compartmental methods. Geometric means, GMRs and CIs were calculated.

[5] = Chronic (3- and 9-month) monkey toxicity studies; type: in vivo
[6] = tested on: adults with CCR5 tropic HIV-1; assay: Study 202 post-hoc APRI and FIB-4 fibrosis index scores; type: in vivo, human
Method: APRI and FIB-4 scores were calculated. Change in score category from baseline (BL) to Weeks 24 and 48 was assessed in patients with non-missing data. Correlations between changes from BL in APRI and FIB-4 scores, and MCP-1 (CCR2 ligand) and sCD14 (inflammatory biomarker) levels were evaluated.

[7] = CVC-high 100 mg/kg/day, week 18
[8] = CVC-high 100 mg/kg/day, week 18, listed as Cenicriviroc
[9] = CVC-low 20 mg/kg/day, week 18, listed as Cenicriviroc

Chain of CCR5 (P51681 whole entry): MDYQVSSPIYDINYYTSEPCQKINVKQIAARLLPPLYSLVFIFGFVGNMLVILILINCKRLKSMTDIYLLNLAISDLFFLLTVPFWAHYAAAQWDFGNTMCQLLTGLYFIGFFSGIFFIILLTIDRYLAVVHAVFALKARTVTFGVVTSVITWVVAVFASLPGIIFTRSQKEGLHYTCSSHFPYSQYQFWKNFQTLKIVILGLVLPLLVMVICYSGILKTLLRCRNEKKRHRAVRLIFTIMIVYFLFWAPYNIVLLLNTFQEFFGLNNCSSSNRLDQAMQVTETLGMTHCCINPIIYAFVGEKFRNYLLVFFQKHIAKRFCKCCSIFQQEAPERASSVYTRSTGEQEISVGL

CCCCOCCOc1ccc(-c2ccc3c(c2)/C=C(/C(=O)Nc2ccc([S@@+]([O-])Cc4cncn4CCC)cc2)CCCN3CC(C)C)cc1 [CVC, (S)-8-[4-(2-Butoxyethoxy)phenyl]-1-isobutyl-N-(4-{[(1-propyl-1H-imidazol-5-yl)methyl]sulfinyl}phenyl)-1,2,3,4-tetrahydro-1-benzazocine-5-carboxamide]
antagonism of CCR5 (CCR5): potent and concentration-dependent antagonism | effect on NASH-derived HCC ([1]; CVC treatment groups, week 18): not observed | Body weight [1, 7]: 20.8 ± 2.7 g | Liver-to-body weight ratio [1, 7]: 8.8±2.3% | Body weight [1, 8]: 20.8 ± 2.7 g | Liver-to-body weight ratio [1, 8]: 8.8 ± 2.3% | mice that died (survival analysis) ([1]; CVC-high group): Five out of twelve mice died | mice with GS-positive nodules ([1]; CVC-high group, week 18): seven out of seven mice | mice with HCC lesions (HE staining) ([1]; CVC-high group, week 18): six out of seven mice | Body weight ([1]; CVC-low 20 mg/kg/day, week 18): 22.9 ± 3.5 g | Liver-to-body weight ratio ([1]; CVC-low 20 mg/kg/day, week 18): 8.3±2.8% | Body weight [1, 9]: 22.9 ± 3.5 g | Liver-to-body weight ratio [1, 9]: 8.3 ± 2.8% | mice that died (survival analysis) ([1]; CVC-low group): Six out of twelve mice died | mice with GS-positive nodules ([1]; CVC-low group, week 18): five out of six mice | mice with HCC lesions (HE staining) ([1]; CVC-low group, week 18): five out of six mice | D-dimer Changes from baseline at Week 24, Mean ([2]; CVC 100 mg): -32 ng/mL | D-dimer Changes from baseline at Week 24, Median ([2]; CVC 100 mg): -1.0 ng/mL | D-dimer Changes from baseline at Week 48, Mean ([2]; CVC 100 mg): -41 ng/mL | D-dimer Changes from baseline at Week 48, Median ([2]; CVC 100 mg): -1.0 ng/mL | Fibrinogen Changes from baseline at Week 24, Mean ([2]; CVC 100 mg): -3 mg/dL | Fibrinogen Changes from baseline at Week 24, Median ([2]; CVC 100 mg): -14 mg/dL | Fibrinogen Changes from baseline at Week 48, Mean ([2]; CVC 100 mg): 11 mg/dL | Fibrinogen Changes from baseline at Week 48, Median ([2]; CVC 100 mg): 15 mg/dL | IL-6 Changes from baseline at Week 24, Mean ([2]; CVC 100 mg): 0.42 pg/mL | IL-6 Changes from baseline at Week 24, Median ([2]; CVC 100 mg): 0.00 pg/mL | IL-6 Changes from baseline at Week 48, Mean ([2]; CVC 100 mg): 0.29 pg/mL | IL-6 Changes from baseline at Week 48, Median ([2]; CVC 100 mg): 0.00 pg/mL | MCP-1 Changes from baseline at Week 24, Mean ([2]; CVC 100 mg): 493 pg/mL | MCP-1 Changes from baseline at Week 24, Median ([2]; CVC 100 mg): 429 pg/mL | MCP-1 Changes from baseline at Week 48, Mean ([2]; CVC 100 mg): 636 pg/mL | MCP-1 Changes from baseline at Week 48, Median ([2]; CVC 100 mg): 523 pg/mL | hs-CRP Changes from baseline at Week 24, Mean ([2]; CVC 100 mg): -0.16 mg/dL | hs-CRP Changes from baseline at Week 24, Median ([2]; CVC 100 mg): -0.03 mg/dL | hs-CRP Changes from baseline at Week 48, Mean ([2]; CVC 100 mg): -0.08 mg/dL | hs-CRP Changes from baseline at Week 48, Median ([2]; CVC 100 mg): -0.01 mg/dL | plasma MCP-1 over time ([2]; CVC 100 mg and 200 mg, EFV, up to Week 48): dose-response was observed with CVC in increases over time | sCD14 Changes from baseline Week 32, Mean ([2]; CVC 100 mg, original values): 110000 pg/mL | sCD14 Changes from baseline Week 32, Median ([2]; CVC 100 mg, original values): 120000 pg/mL | sCD14 Changes from baseline at Week 12, Mean ([2]; CVC 100 mg, original values): -140000 pg/mL | sCD14 Changes from baseline at Week 12, Median ([2]; CVC 100 mg, original values): -160000 pg/mL | sCD14 Changes from baseline at Week 24, Mean ([2]; CVC 100 mg, original values): -190000 pg/mL | sCD14 Changes from baseline at Week 24, Median ([2]; CVC 100 mg, original values): -180000 pg/mL | sCD14 Changes from baseline at Week 48, Mean ([2]; CVC 100 mg, original values): 100000 pg/mL | sCD14 Changes from baseline at Week 48, Median ([2]; CVC 100 mg, original values): 100000 pg/mL | D-dimer Changes from baseline at Week 24, Mean ([2]; CVC 200 mg): -64 ng/mL | D-dimer Changes from baseline at Week 24, Median ([2]; CVC 200 mg): -50 ng/mL | D-dimer Changes from baseline at Week 48, Mean ([2]; CVC 200 mg): -70 ng/mL | D-dimer Changes from baseline at Week 48, Median ([2]; CVC 200 mg): -50 ng/mL | Fibrinogen Changes from baseline at Week 24, Mean ([2]; CVC 200 mg): -7 mg/dL | Fibrinogen Changes from baseline at Week 24, Median ([2]; CVC 200 mg): -8 mg/dL | Fibrinogen Changes from baseline at Week 48, Mean ([2]; CVC 200 mg): -10 mg/dL | Fibrinogen Changes from baseline at Week 48, Median ([2]; CVC 200 mg): -13 mg/dL | IL-6 Changes from baseline at Week 24, Mean ([2]; CVC 200 mg): 0.81 pg/mL | IL-6 Changes from baseline at Week 24, Median ([2]; CVC 200 mg): 0.00 pg/mL | IL-6 Changes from baseline at Week 48, Mean ([2]; CVC 200 mg): -0.04 pg/mL | IL-6 Changes from baseline at Week 48, Median ([2]; CVC 200 mg): 0.00 pg/mL | MCP-1 Changes from baseline at Week 24, Mean ([2]; CVC 200 mg): 753 pg/mL | MCP-1 Changes from baseline at Week 24, Median ([2]; CVC 200 mg): 695 pg/mL | MCP-1 Changes from baseline at Week 48, Mean ([2]; CVC 200 mg): 900 pg/mL | MCP-1 Changes from baseline at Week 48, Median ([2]; CVC 200 mg): 756 pg/mL | hs-CRP Changes from baseline at Week 24, Mean ([2]; CVC 200 mg): -0.07 mg/dL | hs-CRP Changes from baseline at Week 24, Median ([2]; CVC 200 mg): -0.04 mg/dL | hs-CRP Changes from baseline at Week 48, Mean ([2]; CVC 200 mg): -0.18 mg/dL | hs-CRP Changes from baseline at Week 48, Median ([2]; CVC 200 mg): -0.04 mg/dL | sCD14 Changes from baseline Week 32, Mean ([2]; CVC 200 mg, original values): 20000 pg/mL | sCD14 Changes from baseline Week 32, Median ([2]; CVC 200 mg, original values): -20000 pg/mL | sCD14 Changes from baseline at Week 12, Median ([2]; CVC 200 mg, original values): -210000 pg/mL | sCD14 Changes from baseline at Week 24, Mean ([2]; CVC 200 mg, original values): -230000 pg/mL | sCD14 Changes from baseline at Week 24, Median ([2]; CVC 200 mg, original values): -190000 pg/mL | sCD14 Changes from baseline at Week 48, Mean ([2]; CVC 200 mg, original values): -40000 pg/mL | sCD14 Changes from baseline at Week 48, Median ([2]; CVC 200 mg, original values): -40000 pg/mL | sCD14 over 48 weeks of treatment (linear mixed-model analysis of repeat sCD14 analysis) ([2]; both CVC treatment arms, EFV arm): decrease | CVC plasma exposures in non-HIV infected healthy volunteers compared to HIV-infected subjects [3]: higher | antagonism of CCR2 (CCR2): potent and concentration-dependent antagonism | Cmin on co-administration [4]: remained unchanged | steady-state Cmax and AUC0-tau on co-administration [4]: modest decrease | plasma MCP-1 levels, fold over controls ([5]; 1000 mg/kg/day, chronic (3- and 9-month) monkey toxicity studies): ~5 fold | indication of inflammation in clinical pathology parameters or any tissue incl. liver ([5]; high dose of 1000 mg/kg/day): No indication of inflammation | subjects with APRI 0.5-1.5 ([6]; Baseline): 14% | subjects with APRI <0.5 ([6]; Baseline): 84% | subjects with APRI >1.5 ([6]; Baseline): 2% | subjects with FIB-4 1.45-3.25 ([6]; Baseline): 17% | subjects with FIB-4 <1.45 ([6]; Baseline): 82% | subjects with FIB-4 >3.25 ([6]; Baseline): 1% | subjects with APRI 0.5-1.5 ([6]; Week 24): 7% | subjects with APRI <0.5 ([6]; Week 24): 93% | subjects with APRI decreased 1 category from baseline ([6]; Week 24): 14% | subjects with FIB-4 1.45-3.25 ([6]; Week 24): 7% | subjects with FIB-4 <1.45 ([6]; Week 24): 93% | subjects with FIB-4 decreased 1 category from baseline ([6]; Week 24): 13% | subjects with APRI 0.5-1.5 ([6]; Week 48): 8% | subjects with APRI <0.5 ([6]; Week 48): 91% | subjects with APRI >1.5 ([6]; Week 48): 1% | subjects with APRI decreased 1 category from baseline ([6]; Week 48): 10% | subjects with FIB-4 1.45-3.25 ([6]; Week 48): 5% | subjects with FIB-4 <1.45 ([6]; Week 48): 94% | subjects with FIB-4 >3.25 ([6]; Week 48): 1% | subjects with FIB-4 decreased 1 category from baseline ([6]; Week 48): 14% | subjects with improvements in APRI and FIB-4 scores over time ([6]; pooled data for CVC 100 mg and 200 mg): ≥ 10%
